For data set [1], the target named is T1, rat nNOS (Rattus norvegicus, UniProt P29476).
T1 construct: made in house; host or cells: E. coli
Description: NOS enzyme assay (hemoglobin capture), nNOS. In kind it is biochemical. The settings on record: for activity/potency for nNOS in words: purified enzyme assay; for Ki: rat nNOS; for n/e: ratio of Ki (eNOS) to Ki (nNOS); for n/e / n/i: Tables 1-3; for n/i: ratio of Ki (iNOS) to Ki (nNOS).
Description: (§1) As above, the activities of the target compounds of Schemes 8-9 were determined against three NOS isozymes: rat nNOS, bovine eNOS and marine iNOS using known literature methods.
(§2) Enzyme Assays. […] The four enzyme isoforms were recombinant enzymes overexpressed (in E. coli) and isolated as reported. […] The formation of nitric oxide was measured using a well-known hemoglobin capture assay, as described previously in the literature. […] Ki=IC50/(1+[S]/Km) (1)

The target in data set [2] is T2, bovine eNOS (Bos taurus, UniProt P29473).
T2 construct: made in house; host or cells: E. coli
Description: NOS enzyme assay (hemoglobin capture), eNOS. The data set is classed as biochemical.
Description: as §1, §2

The target in data set [3] is T3, murine macrophage iNOS (Mus musculus, UniProt P29477).
T3 construct: made in house; host or cells: E. coli
The data set can be described thus: NOS enzyme assay (hemoglobin capture), iNOS. The data set is classed as biochemical.
Description: as §1, §2

The target of data set [4] is T4, nNOS in 293T cells overexpressing nNOS (293T/nNOS cells) (Rattus norvegicus, UniProt P29476).
T4 construct: expressed in transfected cells; host or cells: 293T cells (293T/nNOS)
The data set can be described thus: Cell-based assay: inhibition of nNOS in 293T/nNOS cells, nitrite by Griess reagent. The conditions noted are these: for activity in the cell-based assay in words: 293T/nNOS cells, FIG. 4; for membrane penetration ability / bioavailability based on cell-based assay: inferred from 293T/nNOS cell-based assay. Background: The Griess reaction detects nitrite, a stable product of nitric oxide.
Description: After eight hours, the amount of nitrite in culture media was quantified with the Griess reagent. Each data point is an average of two independent experiments.

Setting [5] is: Ki calculated from directly measured IC50 values, read-out: Ki nNOS.
[6] abbreviates: Ki calculated from directly measured IC50 values, read-out: Ki eNOS.
The mark [7] stands for this setting: Ki calculated from directly measured IC50 values, read-out: Ki iNOS.
Where [8] appears, read: Table 4, read-out: Ki (μM) nNOS.
Setting [9] is: Table 4, read-out: Ki (μM) eNOS.
[10] abbreviates: Table 4, read-out: Ki (μM) iNOS.

As a reminder, the Ki is a dissociation constant, usually derived from enzyme kinetics or from competition with a known ligand.

Entries after “also recorded” stand apart in the source; their conditions may differ. Like-named read-outs stand apart in the source and are kept apart here.

Take `Cc1cc(C)nc(NCc2ccc3cc(CNc4cc(C)cc(C)n4)ccc3c2)c1` [3a, N,N′-(Naphthalene-2,6-diylbis(methylene))bis(4,6-dimethylpyridin-2-amine)]: in data set [1], the “activity/potency for nNOS in words” value is given as “poor activity”. Further, the inhibition constant (Ki) in data set [1] (setting [5]) was over 11.5 µM.

Consider `Cc1cc(N)nc(CCc2ccc3cc(CCc4cc(C)cc(N)n4)ccc3c2)c1` [3b, 6,6′-(2,2′-(Naphthalene-2,6-diyl)bis(ethane-2,1-diyl))bis(4-methylpyridin-2-amine)], for which, in data set [1], the “selectivity for nNOS over eNOS” value came to 7 fold, the “selectivity for nNOS over iNOS” value was found to be 9 fold, the n/e was determined as 7.22 and the n/i is 9.42. For the same compound, the Ki in data set [1] (setting [5]) is 0.241 µM. Also, the Ki in data set [2] (setting [6]) was 1.74 µM. Also, the Ki in data set [3] (setting [7]) is 2.27 µM.

`Cc1cc(N)nc(CCc2ccc3ccc(CCc4cc(C)cc(N)n4)cc3c2)c1` [3c, 6,6′-(2,2′-(Naphthalene-2,7-diyl)bis(ethane-2,1-diyl))bis(4-methylpyridin-2-amine)]: the Ki in data set [1] (setting [5]) is 0.102 µM; in data set [2] (setting [6]), 1.52 µM; in data set [3] (setting [7]), 2.05 µM. Further, the n/e in data set [1] was found to be 14.9. Besides, the n/i in data set [1] turned out to be 20.1.

For the compound `Cc1cc(N)nc(CCc2ccc3ccc(CCc4cc(C)nc(N)c4)cc3c2)c1` [3d, 4-(2-(7-(2-(6-Amino-4-methylpyridin-2-yl)ethyl)naphthalen-2-yl)ethyl)-6-methylpyridin-2-amine], the “activity/potency for nNOS in words” value in data set [1] is listed as “little activity”. In addition, in data set [1] (setting [5]), the Ki is over 0.5 µM.

With `Cc1cc(N)nc(CCc2ccc(CCc3cc(C)cc(N)n3)cc2)c1` [3e], in data set [1], the “selectivity for nNOS over eNOS” value turned out to be 25 fold, the n/e is on record as 24.6 and the n/i stood at 24.8. In addition, the Ki in data set [1] (setting [5]) is 0.097 µM. In addition, the Ki in data set [2] (setting [6]) is 2.39 µM. The inhibition constant (Ki) in data set [3] (setting [7]) is 2.41 µM.

With `Cc1cc(N)nc(CCc2ccc(CCc3cc(C)nc(N)c3)cc2)c1` [3f, 4-(4-(2-(6-Amino-4-methylpyridin-2-yl)ethyl)phenethyl)-6-methylpyridin-2-amine], the “activity/potency for nNOS in words” value in data set [1] was “inactive”. Moreover, the inhibition constant Ki in data set [1] (setting [5]) was 0.167 µM.

Regarding `Cc1cc(N)nc(CCc2cccc(CCc3cc(C)cc(N)n3)c2)c1` [3g, 6,6′-(2,2′-(1,3-Phenylene)bis(ethane-2,1-diyl))bis(4-methylpyridin-2-amine)], the “activity in the cell-based assay in words” value in data set [4] was “almost no activity”.

For the compound `Cc1cc(N)nc(CCc2cccc(CCc3cc(C)nc(N)c3)c2)c1` [3h, 4-(3-(2-(6-Amino-4-methylpyridin-2-yl)ethyl)phenethyl)-6-methylpyridin-2-amine], in data set [1], the “selectivity for nNOS over eNOS” value is 111 fold, the “selectivity for nNOS over iNOS” value came out at 71.8 fold, the “activity/potency for nNOS in words” value is given as “highly potent” and the n/e is 111. In addition, the n/i in data set [1] turned out to be 71.8. In addition, in data set [1] (setting [5]), the Ki is 0.038 µM. In addition, the inhibitory constant (Ki) in data set [2] (setting [6]) was 4.2 µM. Also, in data set [3] (setting [7]), the Ki is 2.73 µM. In addition, in data set [4], the “activity in the cell-based assay in words” value was “almost no activity”.

For `Cc1cc(CCc2cccc(CCc3cc(C)nc(N)c3)c2)cc(N)n1` [3i, 4,4′-(2,2′-(1,3-Phenylene)bis(ethane-2,1-diyl))bis(6-methylpyridin-2-amine)], in data set [1], the “activity/potency for nNOS in words” value is listed as “poor activity”. The Ki in data set [1] (setting [5]) is 2.25 µM.

Consider `Cc1cc(N)nc(CCc2cncc(CCc3cc(C)cc(N)n3)c2)c1` [3j, 6,6′-(2,2′-(Pyridine-3,5-diyl)bis(ethane-2,1-diyl))bis(4-methylpyridin-2-amine)], for which, in data set [4], the “membrane penetration ability / bioavailability based on cell-based assay” value was “very good membrane penetration ability; also recorded: improved bioavailability”.

Take `Cc1cc(N)nc(CCc2cncc(CCc3cc(C)nc(N)c3)c2)c1` [3k, 4-(2-(5-(2-(6-Amino-4-methylpyridin-2-yl)ethyl)pyridin-3-yl)ethyl)-6-methylpyridin-2-amine]: in data set [1], the “selectivity for nNOS over eNOS” value came out at 156 fold, the “activity/potency for nNOS in words” value is recorded as “highly potent”, the n/e amounted to 156 and the n/i is reported as 19. In data set [1] (setting [5]), the Ki is 0.103 µM. Moreover, the Ki in data set [2] (setting [6]) was 16.1 µM. The inhibitory constant (Ki) in data set [3] (setting [7]) is 1.91 µM. In addition, in data set [4], the “membrane penetration ability / bioavailability based on cell-based assay” value was “very good membrane penetration ability”.

For the compound `Cc1cc(N)nc(CCc2cc(C#N)cc(CCc3cc(C)cc(N)n3)c2)c1` [HH006, 3,5-bis(2-(6-amino-4-methylpyridin-2-yl)ethyl)benzonitrile], the Selectivity n/e in data set [1] (Table 4) is recorded as 472. The compound also showed a Selectivity n/i in data set [1] (Table 4) of 239. The “activity/potency for nNOS in words” value in data set [1] is “good potency and selectivity”. Further, the Ki in data set [1] (setting [8]) came to 0.056 µM; in data set [2] (setting [9]) it was 26.4 µM; in data set [3] (setting [10]), 13.4 µM.

In data set [1] (Table 4), `Cc1cc(N)nc(CCc2cc(CCc3cc(C)cc(N)n3)cc(N3CCNCC3)c2)c1` [HH025] yielded a Selectivity n/e of 30. Further, the Selectivity n/i in data set [1] (Table 4) was 17. In addition, the inhibition constant (Ki) was 2.1 µM in data set [1] (setting [8]), 63.2 µM in data set [2] (setting [9]) and 36.7 µM in data set [3] (setting [10]).

In data set [1] (Table 4), `Cc1cc(N)nc(CCc2cc(CCCN)cc(CCc3cc(C)cc(N)n3)c2)c1` [HH026] gave a Selectivity n/e of 22. Further, in data set [1] (Table 4), the Selectivity n/i worked out at 60. For the same compound, the Ki was found to be 0.54 µM in data set [1] (setting [8]), 12.1 µM in data set [2] (setting [9]) and 32.5 µM in data set [3] (setting [10]).

Consider `Cc1cc(N)nc(CCc2cc(CCc3cc(C)cc(N)n3)cc(N3CCN(C)CC3)c2)c1` [HH027], for which the Selectivity n/e in data set [1] (Table 4) came to 17. The Selectivity n/i in data set [1] (Table 4) amounted to 24. Also, the values for the inhibition constant (Ki) in data set [1] (setting [8]), in data set [2] (setting [9]) and in data set [3] (setting [10]) were 5.75 µM, 97.4 µM and 138 µM, respectively.

Compound `Cc1cc(N)nc(CCc2cc(CN)cc(CCc3cc(C)cc(N)n3)c2)c1` [HH030, 6,6′-((5-(aminomethyl)-1,3-phenylene)bis(ethane-2,1-diyl))bis(4-methylpyridin-2-amine)] registered a Selectivity n/e in data set [1] (Table 4) of 221. For the same compound, the Selectivity n/i in data set [1] (Table 4) stood at 119. For the same compound, the figures for the inhibition constant (Ki) in data set [1] (setting [8]), in data set [2] (setting [9]) and in data set [3] (setting [10]) were 0.053 µM, 11.7 µM and 6.31 µM, respectively.

`Cc1cc(N)nc(CCc2ccc(CCCN)c(CCc3cc(C)cc(N)n3)c2)c1` [HH032]: in data set [1] (Table 4), the Selectivity n/e is given as 303. Besides, the Selectivity n/i in data set [1] (Table 4) was determined as 199. Moreover, the inhibition constant Ki in data set [1] (setting [8]) worked out at 0.11 µM; in data set [2] (setting [9]), 33.4 µM; in data set [3] (setting [10]), 21.9 µM.

Values taken from patent publication US8932842B2, “Aminopyridine dimer compounds, compositions and related methods for neuronal nitric oxide synthase inhibition” (Northwestern University, priority 2009, dated 2015).
